The assay deals with M. tuberculosis. Nature of the assay: microbe, parasite or virus in culture. Type of assay: cell-based. The settings on record: Mycobacterium tuberculosis, 120 h; read-out: QUM (MIC80).

Converted amounts (≈) assume the structure as drawn.

`CCc1nc2ccc(F)cn2c1C(=O)NCc1ccc(N2CCN(c3ccccc3)CC2)cc1` [Compound 71]: the MIC80 is less than 1 µM.

Turning to `CCc1nc2ccc(Br)cn2c1C(=O)NCc1ccc(N2CCC(c3ccc(F)cc3)CC2)cc1` [Compound 72], the MIC80 is less than 1 µM. With `CCc1nc2c(C)cccn2c1C(=O)NCc1ccc(N2CCC(c3ccccc3)CC2)cc1` [Compound 73] the figure was less than 1 µM; with `CCc1nc2cc(F)ccn2c1C(=O)NCc1ccc(N2CCN(c3ccc(OC)cc3)CC2)cc1` [Compound 74], less than 1 µM. Regarding `CCc1nc2ccc(F)cn2c1C(=O)NCc1ccc(N2CCN(c3ccc(C)cc3)CC2)cc1` [Compound 75], the MIC80 was less than 1 µM.

Consider `CCc1nc2ccc(F)cn2c1C(=O)NCc1ccc(N2CCN(c3ccc(C(F)(F)F)cc3)CC2)cc1` [Compound 76], for which the MIC80 is less than 1 µM.

In the case of `CCc1nc2ccc(F)cn2c1C(=O)NCc1ccc(N2CCN(c3ccc(Cl)cc3)CC2)cc1` [Compound 77], the MIC80 is less than 1 µM. `CCc1nc2c(C(F)(F)F)cccn2c1C(=O)NCc1ccc(N2CCC(c3ccc(F)cc3)CC2)cc1` [Compound 78]: the MIC80 fell in the range of 1 to 20 µM (≈ 0.525 to 10.5 µg/mL).

`CCc1nc2ccc(Br)cn2c1C(=O)NCc1ccc(N2CCC(c3ccc(C)cc3)CC2)cc1` [Compound 79]: the MIC80 is less than 1 µM. With `CCc1nc2ccc(C(F)(F)F)cn2c1C(=O)NCc1ccc(N2CCN(c3ccccc3)CC2)cc1` [Compound 80] the figure was less than 1 µM; with `CCc1nc2cc(C(F)(F)F)ccn2c1C(=O)NCc1ccc(N2CCN(c3ccccc3)CC2)cc1` [Compound 81], less than 1 µM; with `CCc1nc2cc(F)ccn2c1C(=O)NCc1ccc(N2CCN(c3ccc(F)cc3)CC2)cc1` [Compound 82], less than 1 µM. Then `CCc1nc2c(C)cccn2c1C(=O)NCc1ccc(N2CCN(c3ccc(F)cc3)CC2)cc1` [Compound 83], with less than 1 µM; and `CCc1nc2c(C(F)(F)F)cccn2c1C(=O)NCc1ccc(N2CCN(c3ccccc3)CC2)cc1` [Compound 84], with 1 to 20 µM (≈ 0.508 to 10.2 µg/mL). As for `CCc1nc2c(Cl)cccn2c1C(=O)NCc1ccc(N2CCN(c3ccc(F)cc3)CC2)cc1` [Compound 85], the MIC80 was less than 1 µM. With `CCc1nc2cc(C(F)(F)F)ccn2c1C(=O)NCc1ccc(N2CCN(c3ccc(F)cc3)CC2)cc1` [Compound 86], the MIC80 is less than 1 µM. As for `CCc1nc2ccc(C(F)(F)F)cn2c1C(=O)NCc1ccc(N2CCN(c3ccc(F)cc3)CC2)cc1` [Compound 87], the MIC80 was less than 1 µM. On to `CCc1nc2c(C(F)(F)F)cccn2c1C(=O)NCc1ccc(N2CCC(c3ccc(C(F)(F)F)cc3)CC2)cc1` [Compound 88], for which the MIC80 is 1 to 20 µM (≈ 0.575 to 11.5 µg/mL).

With `CCc1nc2c(Br)cccn2c1C(=O)NCc1ccc(N2CCC(c3ccc(OC)cc3)CC2)cc1` [Compound 89], the MIC80 was 1 to 20 µM (≈ 0.547 to 10.9 µg/mL).

Take `CCc1nc2cc(F)ccn2c1C(=O)NCc1ccc(N2CCN(c3ccc(Cl)cc3)CC2)cc1` [Compound 90]: the MIC80 is less than 1 µM. For the compound `CCc1nc2cc(OC)ccn2c1C(=O)NCc1ccc(N2CCC(c3ccc(OC)cc3)CC2)cc1` [Compound 92], the MIC80 was less than 1 µM. For `CCc1nc2cc(F)ccn2c1C(=O)NCc1ccc(N2CCN(c3ccc(C)cc3)CC2)cc1` [Compound 93], the MIC80 is less than 1 µM.

In the case of `CCc1nc2c(Br)cccn2c1C(=O)NCc1ccc(N2CCN(c3ccc(OC(F)(F)F)cc3)CC2)cc1` [Compound 94], the MIC80 was less than 1 µM.

Regarding `CCc1nc2c(Br)cccn2c1C(=O)NCc1ccc(N2CCN(c3ccc(OC)cc3)CC2)cc1` [Compound 95], the MIC80 is less than 1 µM. For the compound `CCc1nc2cc(C(F)(F)F)ccn2c1C(=O)NCc1ccc(N2CCN(c3ccc(OC)cc3)CC2)cc1` [Compound 96], the MIC80 was less than 1 µM. Regarding `CCc1nc2c(Br)cccn2c1C(=O)NCc1ccc(N2CCN(c3ccc(C)cc3)CC2)cc1` [Compound 97], the MIC80 is less than 1 µM. With `CCc1nc2c(Cl)cccn2c1C(=O)NCc1ccc(N2CCC(c3ccc(OC)cc3)CC2)cc1` [Compound 98] the figure was less than 1 µM; with `CCc1nc2c(C(F)(F)F)cccn2c1C(=O)NCc1ccc(N2CCN(c3ccc(C)cc3)CC2)cc1` [Compound 99], 1 to 20 µM (≈ 0.522 to 10.4 µg/mL). In the case of `CCc1nc2ccc(OC)cn2c1C(=O)NCc1ccc(N2CCN(c3ccc(C)cc3)CC2)cc1` [Compound 100], the MIC80 is less than 1 µM. Regarding `CCc1nc2ccc(Br)cn2c1C(=O)NCc1ccc(N2CCN(c3ccc(C)cc3)CC2)cc1` [Compound 101], the MIC80 was less than 1 µM.

Turning to `CCc1nc2ccc(C(F)(F)F)cn2c1C(=O)NCc1ccc(N2CCN(c3ccc(C)cc3)CC2)cc1` [Compound 102], the MIC80 is less than 1 µM. Regarding `CCc1nc2c(OC)cccn2c1C(=O)NCc1ccc(N2CCN(c3ccc(Cl)cc3)CC2)cc1` [Compound 103], the MIC80 is 1 to 20 µM (≈ 0.504 to 10.1 µg/mL). With `CCc1nc2c(OC)cccn2c1C(=O)NCc1ccc(N2CCN(c3ccc(C)cc3)CC2)cc1` [Compound 104] the figure was 1 to 20 µM (≈ 0.484 to 9.67 µg/mL); with `CCc1nc2c(C(F)(F)F)cccn2c1C(=O)NCc1ccc(N2CCN(c3ccc(OC)cc3)CC2)cc1` [Compound 105], 1 to 20 µM (≈ 0.538 to 10.8 µg/mL); with `CCc1nc2cc(C(F)(F)F)ccn2c1C(=O)NCc1ccc(N2CCN(c3ccc(C)cc3)CC2)cc1` [Compound 106], less than 1 µM. On to `CCc1nc2ccc(OC)cn2c1C(=O)NCc1ccc(N2CCN(c3ccc(OC(F)(F)F)cc3)CC2)cc1` [Compound 107], for which the MIC80 is less than 1 µM. With `CCc1nc2cc(OC)ccn2c1C(=O)NCc1ccc(N2CCN(c3ccc(C)cc3)CC2)cc1` [Compound 108], the MIC80 is less than 1 µM. For `CCc1nc2ccc(C(F)(F)F)cn2c1C(=O)NCc1ccc(N2CCN(c3ccc(OC)cc3)CC2)cc1` [Compound 109], the MIC80 was less than 1 µM. With `CCc1nc2cc(OC)ccn2c1C(=O)NCc1ccc(N2CCN(c3ccc(OC)cc3)CC2)cc1` [Compound 110], the MIC80 was less than 1 µM. Regarding `CCc1nc2ccc(OC)cn2c1C(=O)NCc1ccc(N2CCN(c3ccc(OC)cc3)CC2)cc1` [Compound 111], the MIC80 is less than 1 µM. `CCc1nc2c(C(F)(F)F)cccn2c1C(=O)NCc1ccc(N2CCC(c3ccccc3)CC2)cc1` [Compound 112]: the MIC80 was 1 to 20 µM (≈ 0.507 to 10.1 µg/mL). As to `CCc1nc2cc(Br)ccn2c1C(=O)NCc1ccc(N2CCC(c3ccccc3)CC2)cc1` [Compound 113], the MIC80 is less than 1 µM.

As for `CCc1nc2ccc(F)cn2c1C(=O)NCc1ccc(N2CCC(c3ccc(C)cc3)CC2)cc1` [Compound 115], the MIC80 was less than 1 µM. Regarding `CCc1nc2cc(F)ccn2c1C(=O)NCc1ccc(N2CCN(c3ccc(OC(F)(F)F)cc3)CC2)cc1` [Compound 116], the MIC80 is less than 1 µM. Then `CCc1nc2c(OC)cccn2c1C(=O)NCc1ccc(N2CCC(c3ccc(OC(F)(F)F)cc3)CC2)cc1` [Compound 117], with 1 to 20 µM (≈ 0.553 to 11.1 µg/mL); and `CCc1nc2ccc(OC)cn2c1C(=O)NCc1ccc(N2CCC(c3ccccc3)CC2)cc1` [Compound 118], with less than 1 µM. With `CCc1nc2c(Cl)cccn2c1C(=O)NCc1ccc(N2CCC(c3ccc(C(F)(F)F)cc3)CC2)cc1` [Compound 119] the figure was less than 1 µM; with `CCc1nc2ccc(C(F)(F)F)cn2c1C(=O)NCc1ccc(N2CCC(c3ccc(OC)cc3)CC2)cc1` [Compound 120], less than 1 µM. Turning to `CCc1nc2ccc(C(F)(F)F)cn2c1C(=O)NCc1ccc(N2CCN(c3ccc(Cl)cc3)CC2)cc1` [Compound 121], the MIC80 is less than 1 µM.

The values above are taken from US20160185774A1, “Anti-Infective Compounds” (priority 2013, published 2016).
